# Like-named read-outs stand apart in the source and are kept apart here.
# Key:
# Format in all cases: cell-based, Human
# H1703 (PDGFRa amp) = test: In vitro growth inhibition of H1703 tumor cells (MTT/CCK8); conditions: in vitro growth inhibition (or induction of apoptosis), cells cultured 3 to 5 days, MTT (CCK8), read-out: IC50 H1703 (PDGFRa amp)
# KCL-22 (BCR-ABL) = test: In vitro growth inhibition of KCL-22 tumor cells (MTT/CCK8); conditions: in vitro growth inhibition (or induction of apoptosis), cells cultured 3 to 5 days, MTT (CCK8), read-out: IC50 KCL-22 (BCR-ABL)
# KATO III (FGFR2 amp) = test: In vitro growth inhibition of KATO III tumor cells (MTT/CCK8); conditions: in vitro growth inhibition (or induction of apoptosis), cells cultured 3 to 5 days, MTT (CCK8), read-out: IC50 KATO III (FGFR2 amp)
# Kasumi-1 (KIT N822K) = test: In vitro growth inhibition of Kasumi-1 tumor cells (MTT/CCK8); conditions: in vitro growth inhibition (or induction of apoptosis), cells cultured 3 to 5 days, MTT (CCK8), read-out: IC50 Kasumi-1 (KIT N822K)
# MOLM-13 (FLT3-ITD) = test: In vitro growth inhibition of MOLM-13 tumor cells (MTT/CCK8); conditions: in vitro growth inhibition (or induction of apoptosis), cells cultured 3 to 5 days, MTT (CCK8), read-out: IC50 MOLM-13 (FLT3-ITD)
# Hep3B2 (FGFR3/4+++) = test: In vitro growth inhibition of Hep3B2 tumor cells (MTT/CCK8); conditions: in vitro growth inhibition (or induction of apoptosis), cells cultured 3 to 5 days, MTT (CCK8), read-out: IC50 Hep3B2 (FGFR3/4+++)
# Karpas 299 (NPM-ALK) = test: In vitro growth inhibition of Karpas 299 tumor cells (MTT/CCK8); conditions: in vitro growth inhibition (or induction of apoptosis), cells cultured 3 to 5 days, MTT (CCK8), read-out: IC50 Karpas 299 (NPM-ALK)
# H1581 (FGFR1 amp) = test: In vitro growth inhibition of H1581 tumor cells (MTT/CCK8); conditions: in vitro growth inhibition (or induction of apoptosis), cells cultured 3 to 5 days, MTT (CCK8), read-out: IC50 H1581 (FGFR1 amp)
Structure (SMILES),IC50 (H1703 (PDGFRa amp)) [nM],IC50 (KCL-22 (BCR-ABL)) [nM],IC50 (KATO III (FGFR2 amp)) [nM],IC50 (Kasumi-1 (KIT N822K)) [nM],IC50 (MOLM-13 (FLT3-ITD)) [nM],IC50 (Hep3B2 (FGFR3/4+++)) [nM],IC50 (Karpas 299 (NPM-ALK)) [nM],IC50 (H1581 (FGFR1 amp)) [nM],"IC50 (H1703 (PDGFRa amp); Homo sapiens, NCI-H1703) [nM]","IC50 (KCL-22 (BCR-ABL); Homo sapiens, KCL-22) [nM]","IC50 (KATO III (FGFR2 amp); Homo sapiens, KATO III) [nM]","IC50 (Kasumi-1 (KIT N822K); Homo sapiens, Kasumi 1) [nM]","IC50 (MOLM-13 (FLT3-ITD); Homo sapiens, MOLM-13) [nM]","IC50 (Hep3B2 (FGFR3/4+++); Homo sapiens, Hep3B) [nM]","IC50 (Karpas 299 (NPM-ALK); Homo sapiens, KARPAS-299) [nM]","IC50 (H1581 (FGFR1 amp); Homo sapiens, NCI-H1581) [nM]"
"CC(C)(C)c1cc(NC(=O)Nc2ccc(Oc3ccnc4cc(OCCN5CCOCC5)c(C(N)=O)cc34)cc2Cl)[nH]n1 [Compound 81, 4-{4-[3-(5-tert-butyl-2H-pyrazol-3-yl)-ureido]-3-chloro-phenoxy}-7-(2-morpholin-4-yl-ethoxy) pyridine-6-carboxamide]",11.3,34.9,0.31,26.7,11.9,44.7,466,4.94,–,–,–,–,–,–,–,–
"CN1CCN(CCCOc2cc3nccc(Oc4ccc(NC(=O)Nc5cc(C(C)(C)C)n[nH]5)c(Cl)c4)c3cc2C(N)=O)CC1 [Compound 82, 4-{4-[3-(5-tert-butyl-2H-pyrazol-3-yl)-ureido]-3-chloro-phenoxy}-7-[3-(4-methyl-piperazin-1-yl)-propoxy]-quinolin-6-carboxamide]",–,–,–,–,–,–,–,–,9.43,20.6,2.94,5.21,1.7,23.9,174,3.61
CN(C)CCOc1cc2nccc(Oc3ccc(NC(=O)Nc4cc(C(C)(C)C)n[nH]4)c(Cl)c3)c2cc1C(N)=O [Compound 83],–,–,–,–,–,–,–,–,59.5,190,5.94,260,15.3,150,851,92.9
"CC(C)(C)c1cc(NC(=O)Nc2ccc(Oc3ccnc4cc(OCCN5CCCCC5)c(C(N)=O)cc34)cc2Cl)[nH]n1 [Compound 84, 4-{4-[3-(5-tert-butyl-2H-pyrazol-3-yl)-ureido]-3-chloro-phenoxy}-7-(2-piperidin-1-yl-ethoxy)-quinolin-pyridine-6-carboxamide]",–,–,–,–,–,–,–,–,127,287,6.09,240,35.2,148,> 1000,114
"COCCN1CCN(CCCOc2cc3nccc(Oc4ccc(NC(=O)Nc5cc(C(C)(C)C)n[nH]5)c(Cl)c4)c3cc2C(N)=O)CC1 [Compound 85, 4-{4-[3-(5-tert-butyl-2H-pyrazol-3-yl)-ureido]-3-chloro-phenoxy}-7-{3-[4-(2-methoxy-ethyl)-piperazin-1-yl]-propoxy}-quinolin-6-carboxamide]",–,–,–,–,–,–,–,–,14,33.1,1.92,6.49,2.83,16.8,263,14.2
"CC(C)(C)c1cc(NC(=O)Nc2ccc(Oc3ccnc4cc(O)c(C(N)=O)cc34)c(Cl)c2Cl)[nH]n1 [Compound 92, 4-{4-[3-(5-tert-butyl-2H-pyrazol-3-yl)-ureido]-2,3-dichloro-phenoxy}-7-hydroxy-quinolin-6-carboxamide]",–,–,–,–,–,–,–,–,453,67.5,17.5,182,28.9,232,749,146
"CN(C)CCOc1cc2nccc(Oc3ccc(NC(=O)Nc4cc(C(C)(C)C)n[nH]4)c(Cl)c3Cl)c2cc1C(N)=O [Compound 93, 4-{4-[3-(5-tert-butyl-2H-pyrazol-3-yl)-ureido]-2,3-dichloro-phenoxy}-7-(2-dimethylamino-ethoxy)carboxamide]",–,–,–,–,–,–,–,–,79.3,6.12,3.53,8.29,10.3,9.84,178,210
"CC(C)(C)c1cc(NC(=O)Nc2ccc(Oc3ccnc4cc(OCCN5CCOCC5)c(C(N)=O)cc34)c(Cl)c2Cl)[nH]n1 [Compound 94, 4-{4-[3-(5-tert-butyl-2H-pyrazol-3-yl)-ureido]-2,3-dichloro-phenoxy}-7-(2-morpholin-4-yl-ethoxy)-quinolin-6-carboxamide]",–,–,–,–,–,–,–,–,5.03,3.66,0.89,4.22,1.61,10.6,65,4.17
"CC(C)(C)c1cc(NC(=O)Nc2ccc(Oc3ccnc4cc(OCCN5CCCCC5)c(C(N)=O)cc34)c(Cl)c2Cl)[nH]n1 [Compound 96, 4-{4-[3-(5-tert-butyl-2H-pyrazol-3-yl)-ureido]-2,3-dichloro-phenoxy}-7-(2-piperidin-1-yl-ethoxy)-quinolin-6-carboxamide]",–,–,–,–,–,–,–,–,45,10.2,1.72,31.4,7.23,36.6,> 1000,38
"COc1cc2nccc(Nc3ccc(NC(=O)Nc4cc(C(C)(C)C)n[nH]4)cc3Cl)c2cc1C(N)=O [Compound 97, 4-{4-[3-(5-tert-butyl-2H-pyrazol-3-yl)-ureido]-2-chloro-phenylamino}-7-methoxy-quinolin-6-carboxamide]",–,–,–,–,–,–,–,–,342,122,117,> 1000,0.8,456,803,254
"COc1cc2nccc(Nc3ccc(NC(=O)Nc4cc(C(C)(C)C)n[nH]4)cc3C)c2cc1C(N)=O [Compound 98, 4-{4-[3-(5-tert-butyl-2H-pyrazol-3-yl)-ureido]-2-methyl-phenylamino}-7-methoxy-quinolin-6-carboxamide]",–,–,–,–,–,–,–,–,605,> 1000,270,> 1000,6,843,> 1000,433
"COc1cc2nccc(Nc3ccc(NC(=O)Nc4cc(C(C)(C)C)on4)cc3C)c2cc1C(N)=O [Compound 99, 4-{4-[3-(5-tert-butyl-isoxazol-3-yl)-ureido]-2-methyl-phenylamino}-7-methoxy-quinolin-6-carboxamide]",–,–,–,–,–,–,–,–,128,264,37.8,355,3.41,862,> 1000,294
"COc1cc2nccc(Nc3ccc(NC(=O)Nc4cc(C(C)(C)C)on4)cc3Cl)c2cc1C(N)=O [Compound 100, 4-{4-[3-(5-tert-butyl-isoxazol-3-yl)-ureido]-2-chloro-phenylamino}-7-methoxy-quinolin-6-carboxamide]",–,–,–,–,–,–,–,–,202,694,49.7,> 1000,1.01,> 1000,838,271
"COc1cc2nccc(Oc3ccc(NC(=O)Nc4cc(C(C)(C)C)n[nH]4)cc3Cl)c2cc1NC(C)=O [Compound 101, N-(4-{4-[3-(5-tert-butyl-2H-pyrazol-3-yl)-ureido]-2-chloro-phenoxy}-7-methoxy-quinolin-6-yl)-acetamide]",–,–,–,–,–,–,–,–,61.3,11,2.34,24.1,0.08,110,64.3,9.56
"COc1cc2nccc(Oc3ccc(NC(=O)Nc4cc(C(C)(C)C)n[nH]4)cc3C)c2cc1NC(C)=O [Compound 103, N-(4-{4-[3-(5-tert-butyl-2H-pyrazol-3-yl)-ureido]-2-methyl-phenoxy}-7-methoxy-quinolin-6-yl)-acetamide]",–,–,–,–,–,–,–,–,86.7,12.1,4.17,14.6,0.15,191,350,24.2
"COc1cc2nccc(Oc3ccc(NC(=O)Nc4cc(C(C)(C)C)n[nH]4)cn3)c2cc1NC(C)=O [Compound 104, N-(4-{5-[3-(5-tert-butyl-2H-pyrazol-3-yl)-ureido]-pyridin-2-yloxy}-7-methoxy-quinolin-6-yl)-acetamide]",–,–,–,–,–,–,–,–,163,> 1000,40.1,> 1000,1.17,526,768,160

# From patent publication US10800741B2 (ANCUREALL PHARMACEUTICAL (SHANGHAI) CO., LTD., priority 2017, dated 2020)
